One series deals with pain in patients. As to the kind of experiment: human clinical studies of ibogaine dosing, alleviation of pain. Conditions: lower dosing of ibogaine (lower end of prior-art range 0.01 to 1000 mg/kg body weight). It counts as in vivo. Here is the method: While ibogaine has been disclosed for treatment of substance addiction, its use in humans is complicated by the fact that the ranges in the prior art are exceptionally broad (0.01 to 1000 mg/kg body weight).

The next series concerns QT interval. Briefly: QT interval of patients treated with ibogaine. It counts as in vivo, human. Conditions: higher dosing unacceptable. The text has this: A prolonged QT interval is a marker of potential Torsades de Pointes, a serious arrhythmia that can result in death.
As used herein, the term “QT interval” refers to the measure of the time between the start of the Q wave and the end of the T wave in the electrical cycle of the heart. Prolongation of the QT interval refers to an increase in the QT interval.

As for `CCC1CC2CC3c4[nH]c5ccc(OC)cc5c4CCN(C2)C13` (centres unmarked) [ibogaine], the “impact on the alleviation of pain in patients” value with pain in patients was “minimal impact”. Further, the “prolongation of the treated patient's QT interval” value in the series with QT interval is reported as “dose dependent prolongation”.

Values taken from patent US9561233B2, “Use of ibogaine for the treatment of pain” (DemeRX, Inc., priority 2014, dated 2017).
